Results as given in US10189881B2, “MPS peptides and use thereof” (The Regents of the University of California, priority 2013, dated 2019).
Entries after “also recorded” stand apart in the source; their conditions may differ. Peptide text beside a SMILES is read from it.

Legend:
A549 cells = assay: MTS drug sensitivity of MARCKS-knockdown cells; type: cell-based, human; settings: stable MARCKS-knockdown A549 cells versus control shRNA; 72 hours
Method: (§1) FIGS. 10A and 10B show implication of phospho-MARCKS levels in drug resistance. (A) Effects of ectopic V5-tagged PSD-mutant or wild type MARCKS expression on CL1-0 cells in response to various drug treatments. (B) Effects of MARCKS shRNA silencing on A549 cells in response to various drug treatments. Western blot analyses were carried out to determine phospho-MARCKS and total MARCKS levels in these stable cells with appropriate antibodies. The cells were subjected to various doses of cisplatin, paclitaxel, erlotinib or dasatinib for treatment, as indicated. After 72 hours of treatment, cell viability was determinate by MTS assays. Data shown as mean±SD. *P<0.05 versus mock (A; n=3); *P<0.05 versus control shRNA (B; n=4).
For enforced expression of V5-tagged MARCKS in CL1-0, lung cancer cells were transfected with pcDNA3.1-MARCKS, pcDNA3.1-S159/163A MARCKS or pcDNA3.1 vector using lipofectamine reagent (Invitrogen), according to the manufacturer's protocol. After culturing in medium containing with 400 μg/mL of G418 (Invitrogen) for 2-3 weeks, individual clones were isolated. Clones that expressed the MARCKS cDNA coding region were maintained in medium containing 200 μg/mL of G418 and used for further investigation. Applicants also established a MARCKS-mixed knockdown stable A549 transfectant. […]

[1] = tested on: normal human bronchial epithelial cells; assay: Crystal violet staining of viable normal cells after peptide treatment; type: cell-based; settings: 50 μM or various concentrations; 72 hours
Method: After 72 hours of peptide treatment, the number of viable cells was visualized by using crystal violet staining. A representative of three independent experiments.
(§2) After 72 hours of peptide treatment, the number of viable cells was visualized by using crystal violet staining. A representative example of three independent experiments is shown. […] Cells were incubated with various concentrations of MPS peptide for 72 hours and then subjected to MTS assays. 200 μM polyamine and aspartates-substituted mutant (Mut) peptide served as peptide controls (n=3).

[2] = Tolerability upon systemic administration; type: in vivo; settings: systemic administration in mice
[3] = tested on: lung cancer cells with low phospho-MARCKS levels; assay: MTS cell viability, lung cancer cell lines with low phospho-MARCKS levels; type: cell-based, human; settings: various concentrations, 72 hours
Method: as §2

[4] = tested on: cancer cell lines (H1975, HCT116, H1650, CL1-5 and others); assay: MTS cell viability assay, cancer cell lines; type: cell-based; settings: H1975, HCT116, H1650 and CL1-5 cells; 72 hours; listed as MPS peptide
Method: Top, cells were incubated with various concentrations of MPS peptide for 72 hours and then subjected to a MTS assay for analysis of cell viability. Polyamine served as a peptide control. *, P<0.05 compared with untreated cells. The HBE1 cell line is a normal bronchial epithelial cell line. Bottom, ethnicities of the cancer cell lines used for MTS assay.
FIGS. 13A-13G show MPS peptide suppresses cancer cell proliferation and also induces apoptosis in these cells through direct downregulation of MARCKS activation. (A) Determination of MARCKS phosphorylation levels after 24 hours of MPS peptide treatment. Lysates from 1-100 μM MPS peptide-treated H1975 cells were subjected to western blot analysis. (B) Levels of PIP3 in drug resistant cancer cell lines after MPS peptide treatment. Cells were treated with 10, 50 or 100 μM MPS peptide. After 24 hours of treatment, PIP3 lipids were extracted from these cells and analyzed by a PIP3 ELISA kit. *P<0.05 compared with untreated cells. […] (E) Cells were treated with the indicated concentrations of MPS peptide and colonies were counted after 10 days of treatment using crystal violet staining (F) MPS treatment augments cell death. […] The percentages of apoptotic cells were quantified by flow cytometry (top), and presented as mean±SD of three experiments (bottom). *, P<0.05 versus untreated cells (Con). […]

CL1-0 cells = assay: MTS cell viability, drug treatment of mock transfected cells; type: cell-based, human; settings: control mock transfected CL1-0 cells; increasing concentrations, 72 hours
Method: as §1
To determine if the MARCKS phosphorylation step can serve as a therapeutic target, Applicants evaluated whether the status of MARCKS PSD phosphorylation could alter the sensitivity of NSCLC cells to chemotherapeutic agents and tyrosine kinase inhibitors (TKIs). The V5-tagged wild-type and PSD-mutated (S159/163A) MARCKS constructs were generated and transfected into low MARCKS-expressing CL1-0 cells (FIG. 16A) (Chen, C. H. et al. (2013) Oncogene) for establishing stable clones. These stable cell lines were exposed to increasing concentrations of cisplatin, paclitaxel, erlotinib or dasatinib for 72 hours. […] These toxicities were repressed by enforced expression of V5-tagged wild type MARCKS, but not by overexpression of the S159/163A mutant.

H1650 and H1975 cells = settings: 0.5 μM erlotinib alone; 48 hours
Method: The combinatorial effect of MPS peptide with erlotinib on cancer cell lines. Two chemoresistant lung cancer cells, H1650 (Left) and H1975 (Right) cells were respectively co-treated with various dosages of erlotinib and 50 μM MPS peptide. After 48 hours, cell viability was determinate by MTS assay. *, P<0.05.
Two erlotinib resistant cell lines, H1975 (left) and H1650 (right), were co-treated with various dosages of erlotinib and 50 μM MPS peptide. After 48 hours, cell viability was determined by MTS assay. *, P<0.05.
Cells were seeded onto 96-well plates at a density of 5-10×10^3 cells per well and cultured for the indicated treatment. Cell viability was evaluated using a MTS assay kit (Promega, Madison, Wis.). Twenty microliters of the combined MTS/PMS solution was added into each well, incubated for 3 hours at 37° C., and the absorbance was measured at 490 nm by using an ELISA reader.

[5] = tested on: MARCKS phosphorylation (Ser159/163); assay: Western blot of MARCKS phosphorylation in peptide-treated cells; type: cell-based, human; settings: 100 μM peptide, 24 hours, H1650 or H1975 cells
Method: The levels of MARCKS phosphorylation in chemoresistant cancer cell lines after 24 hours of MPS or mutant (Mut) peptide treatment. Lysates form 100 μM MPS-or Mut peptide-treated H1650 or H1975cells were subjected to immunoblotting. The sequences of MARCKS MPS peptide consisted of amino acids 152 to 176 from the wild-type protein (SEQ ID NO: 9). The sequences of mutated MPS peptide (Mut) (SEQ ID NO: 14) had the replacement of serine residues (S) by aspartate (D) and are unable to be recognized by PKC. The underline represents the PIP2 binding site.
FIGS. 13A-13G show MPS peptide suppresses cancer cell proliferation and also induces apoptosis in these cells through direct downregulation of MARCKS activation. (A) Determination of MARCKS phosphorylation levels after 24 hours of MPS peptide treatment. Lysates from 1-100 μM MPS peptide-treated H1975 cells were subjected to western blot analysis. (B) Levels of PIP3 in drug resistant cancer cell lines after MPS peptide treatment. Cells were treated with 10, 50 or 100 μM MPS peptide. After 24 hours of treatment, PIP3 lipids were extracted from these cells and analyzed by a PIP3 ELISA kit. *P<0.05 compared with untreated cells. (C) Downregulation of AKT phosphorylation by MPS peptide treatment, but not by Mut peptide. Cells were treated with 100 μM MPS or Mut peptide for 24 hours. Lysates were immunoblotted with the indicated antibodies. (D) Cell viability analysis of six cancer cell lines and human bronchial epithelial cells (HBE1) upon MPS treatment. Cells were incubated with various concentrations of MPS peptide for 72 hours and then subjected to MTS assays. Polylysine served as a peptide control. n=4, *P<0.05 compared with untreated cells (Con). (E) Cells were treated with the indicated concentrations of MPS peptide and colonies were counted after 10 days of treatment using crystal violet staining (F) MPS treatment augments cell death. […] The percentages of apoptotic cells were quantified by flow cytometry (top), and presented as mean±SD of three experiments (bottom). *, P<0.05 versus untreated cells (Con). […]

H1975 cells = assay: Subcutaneous H1975 xenograft, peptide treatment; type: in vivo, nude mice; settings: i.p., 28 mg/kg every three days for 7 injections
Method: FIGS. 14A-14F show suppressive effects of MPS peptide on cancer growth and metastasis in vivo. (A-C) Suppression of tumorigenesis by MPS peptide. Nude mice bearing subcutaneous tumors were treated for 21 days with intraperitoneal injections of PBS, Mut or MPS peptide at the dosage of 28 mg/kg/3 days. Tumor appearance and volumes were measured and data was presented as mean±SD (n=5, A). A representative photo of primary tumors from subcutaneous tissue of nude mice was shown (B, left). The tumor weights were average values from five mice per group and data were shown as mean±SE (B, right). * P<0.05 as compared with PBS group. […] Top, a representative photo of primary tumors from subcutaneous tissue of nude mice. Bottom, tumor weights are average values from six mice per group. Data were shown as mean±SE. *P<0.01 as compared to PBS-treated group. (E) Inhibition of lung cancer metastasis by MPS peptide. Dissociated PC9 cells were orthotopically injected into the left lobe of the mouse lung. […] (F) Quantification of the average pulmonary metastasis nodules from mice with injected cancer cells and treated with […] or MPS peptide as described (*P<0.05 versus PBS).
To determine the anti-cancer effect of the MPS peptide in vivo, H1975 cells were injected subcutaneously into nude mice. […] After treatment for 21 days, the animals were sacrificed to evaluated tumor weights.

Molecule: 5′-GAGCGCTTCTCCTTCAAGAA-3′ (expressed or natural sequence) [MARCKS shRNA-c, common MARCKS-specific short hairpin RNA]
- Sensitivity to cisplatin, paclitaxel, erlotinib, dasatinib (A549 cells): enhanced sensitivity to these drugs

Molecule: CC(C)C[C@H](NC(=O)[C@H](CCCCN)NC(=O)[C@H](Cc1ccccc1)NC(=O)[C@H](CO)NC(=O)[C@H](CCCCN)NC(=O)[C@H](CCCCN)NC(=O)[C@H](Cc1ccccc1)NC(=O)[C@H](CO)NC(=O)[C@H](Cc1ccccc1)NC(=O)[C@H](CCCNC(=N)N)NC(=O)[C@H](CCCCN)NC(=O)[C@H](CCCCN)NC(=O)[C@H](CCCCN)NC(=O)[C@H](CCCCN)NC(=O)[C@@H](N)CCCCN)C(=O)N[C@@H](CO)C(=O)NCC(=O)N[C@@H](Cc1ccccc1)C(=O)N[C@@H](CO)C(=O)N[C@@H](Cc1ccccc1)C(=O)N[C@@H](CCCCN)C(=O)N[C@@H](CCCCN)C(=O)N[C@@H](CC(N)=O)C(=O)N[C@@H](CCCCN)C(=O)N[C@@H](CCCCN)C(=O)O [MPS] (H-KKKKKRFSFKKSFKLSGFSFKKNKK-OH)
- Cytotoxicity in normal human bronchial epithelial cells [1]: did not observe any cytotoxicity
- Tolerability [2]: well tolerated upon systemic administration in mice
- Cytotoxicity in lung cancer cells with low phospho-MARCKS levels [3]: did not observe any cytotoxicity
- Cytotoxic / anti-proliferative effect on TKIs resistant cancer cells [4]: cytotoxicity effect of MPS peptide is obvious; also recorded: obvious anti-proliferative effect

Molecule: N.N.[Cl][Pt][Cl] [cisplatin]
- Cell viability (CL1-0 cells): dose-dependent decrease of cell viability

Molecule: C#Cc1cccc(Nc2ncnc3cc(OCCOC)c(OCCOC)cc23)c1 [erlotinib]
- Cell viability compared to untreated cells (H1650 and H1975 cells): no significant decrease in cell viability
- Cell viability (CL1-0 cells): dose-dependent decrease of cell viability

Molecule: CC(=O)O[C@H]1C(=O)[C@@]2(C)[C@H]([C@H](OC(=O)c3ccccc3)[C@]3(O)C[C@H](OC(=O)[C@H](O)[C@@H](NC(=O)c4ccccc4)c4ccccc4)C(C)=C1C3(C)C)[C@]1(OC(C)=O)CO[C@@H]1C[C@@H]2O [paclitaxel]
- Cell viability (CL1-0 cells): dose-dependent decrease of cell viability

Molecule: KKKKKRFDFKKDFKLDGFDFKKNKK [Mut, aspartates-substituted mutant MPS peptide used as control]
- Suppression of p-MARCKS [5]: no suppression
- Suppression of p-MARCKS ([5]; listed as Mut peptide): not in Mut peptide-treated cells
- Tumor size (H1975 cells): continuous growth
